Values joined by “and” are separate entries in the source; they are usually repeats but may differ in a detail not shown here. Equal values may be shown once. Inconclusive results and toxic doses are left out. How the source made its calls: active means survival T/C of 150% or more; inactive means T/C below 125% in these data.
System: P388 leukemia ip, CD2F1 mice, survival T/C
Assay: NCI In Vivo Anticancer Drug Screen. Data for tumor model P388 Leukemia (intraperitoneal) in CD2F1 (CDF1) mice
Settings: endpoint: median survival time, higher = longer survival
In short: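 Mice carrying the transplanted tumor received test compound or vehicle. Survival was recorded in each group, and the value is the treated-group measurement divided by that of the vehicle-treated control group.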

[1] = dose: 25.0 mg/kg/injection, schedule: Q04DX003 (ip), vehicle: saline with Tween-80
[2] = dose: 50.0 mg/kg/injection, schedule: Q04DX003 (ip), vehicle: saline with Tween-80
[3] = dose: 100.0 mg/kg/injection, schedule: Q04DX003 (ip), vehicle: saline with Tween-80
[4] = dose: 100.0 mg/kg/injection, schedule: Q04DX003 (ip), vehicle: saline
[5] = dose: 200.0 mg/kg/injection, schedule: Q04DX003 (ip), vehicle: saline
[6] = dose: 400.0 mg/kg/injection, schedule: Q04DX003 (ip), vehicle: saline
[7] = dose: 50.0 mg/kg/injection, schedule: Q01DX005 (ip), vehicle: Klucel (hydroxypropylcellulose) (HPC)
[8] = dose: 100.0 mg/kg/injection, schedule: Q01DX005 (ip), vehicle: Klucel (hydroxypropylcellulose) (HPC)
[9] = dose: 50.0 mg/kg/injection, schedule: Q01DX009 (ip), vehicle: saline with Tween-80
[10] = dose: 100.0 mg/kg/injection, schedule: Q01DX009 (ip), vehicle: saline with Tween-80
[11] = dose: 12.5 mg/kg/injection, schedule: Q01DX009 (ip), vehicle: saline with Tween-80
[12] = dose: 25.0 mg/kg/injection, schedule: Q01DX009 (ip), vehicle: saline with Tween-80

Measured: T/C

O=C(O)c1cc(Br)c2ccccc2c1O
inactive: [1] 100 % of control | [2] 100 % of control | [3] 100 % of control

COC(=O)C1C(=O)COc2ccccc21 (stereo unspecified)
inactive: [4] 105 % of control | [5] 106 % of control | [6] 106 % of control

CCOC(=O)C(CC(C)C)NC(=O)c1cnc2ccccc2c1 (stereo unspecified)
inactive: dose: 60.0 mg/kg/injection, schedule: Q01DX005 (ip), vehicle: saline with Tween-80 104 % of control | dose: 120.0 mg/kg/injection, schedule: Q01DX005 (ip), vehicle: saline with Tween-80 103 % of control | dose: 240.0 mg/kg/injection, schedule: Q01DX005 (ip), vehicle: saline with Tween-80 99 % of control

Brc1nc(-[n+]2ccccc2)[n-]c1Br
inactive: [4] 101 % of control | [5] 99 % of control | [6] 100 % of control

CC1CN2CC(C)O[Si](CC[Si](C)(C)C)(O1)OC(C)C2 (stereo unspecified)
inactive: [7] 104 % of control | [8] 90 % of control

Cc1cc[n+](C2=C(Nc3cccc(C(F)(F)F)c3)C(=O)c3ccccc3C2=O)cc1
inactive: dose: 3.75 mg/kg/injection, schedule: Q01DX005 (ip), vehicle: saline with Tween-80 105 % of control | dose: 7.5 mg/kg/injection, schedule: Q01DX005 (ip), vehicle: saline with Tween-80 119 % of control | dose: 15.0 mg/kg/injection, schedule: Q01DX005 (ip), vehicle: saline with Tween-80 105 % of control

O=C1Nc2ccc(Br)cc2/C1=c1/sc2nc3ccccc3n2c1=O
inactive: dose: 1.56 mg/kg/injection, schedule: Q01DX005 (ip), vehicle: saline with Tween-80 100 % of control | dose: 3.12 mg/kg/injection, schedule: Q01DX005 (ip), vehicle: saline with Tween-80 98 % of control | dose: 6.25 mg/kg/injection, schedule: Q01DX005 (ip), vehicle: saline with Tween-80 100 % of control | [7] 87 % of control | [8] 94 % of control

CC1=CC(Cc2ccccc2)N(C)C(C(N)=O)C1 (stereo unspecified)
inactive: [7] 102 % of control | [8] 101 % of control

c1ccc2c[n+](CCCCCCCCCC[n+]3ccc4ccccc4c3)ccc2c1
inactive: dose: 1.25 mg/kg/injection, schedule: Q01DX009 (ip), vehicle: saline 94 % of control | dose: 2.5 mg/kg/injection, schedule: Q01DX009 (ip), vehicle: saline 101 % of control | dose: 5.0 mg/kg/injection, schedule: Q01DX009 (ip), vehicle: saline 102 % of control

COc1ccc(Cc2cc(C(C)(C)C)cc(C(C)(C)C)c2OC)cc1
inactive: dose: 50.0 mg/kg/injection, schedule: Q01DX005 (ip), vehicle: distilled water + alcohol 99 % of control | dose: 100.0 mg/kg/injection, schedule: Q01DX005 (ip), vehicle: distilled water + alcohol 96 % of control | dose: 200.0 mg/kg/injection, schedule: Q01DX005 (ip), vehicle: distilled water + alcohol 99 % of control

O=C1NC(=O)C2(c3ccccc3)CCN1C2=O (stereo unspecified)
inactive: dose: 50.0 mg/kg/injection, schedule: Q01DX009 (ip), vehicle: Klucel (hydroxypropylcellulose) (HPC) 103 % of control | dose: 100.0 mg/kg/injection, schedule: Q01DX009 (ip), vehicle: Klucel (hydroxypropylcellulose) (HPC) 110 % of control | dose: 200.0 mg/kg/injection, schedule: Q01DX009 (ip), vehicle: Klucel (hydroxypropylcellulose) (HPC) 104 % of control

Cc1cc2cc(O)c3c(=O)c4c(O)cccc4c(=O)c3c2c(=O)c1=O
inactive: dose: 3.12 mg/kg/injection, schedule: Q01DX005 (ip), vehicle: other 101 % of control | dose: 6.25 mg/kg/injection, schedule: Q01DX005 (ip), vehicle: other 107 % of control | dose: 12.5 mg/kg/injection, schedule: Q01DX005 (ip), vehicle: other 100 % of control | dose: 25.0 mg/kg/injection, schedule: Q01DX005 (ip), vehicle: other 104 % of control

O=C1C=CC(=Nc2cccc3c2C(=O)c2ccccc2-3)O1
inactive: dose: 50.0 mg/kg/injection, schedule: Q01DX005 (ip), vehicle: saline with Tween-80 107 % of control and 115 % of control | dose: 100.0 mg/kg/injection, schedule: Q01DX005 (ip), vehicle: saline with Tween-80 120 % of control and 122 % of control | dose: 200.0 mg/kg/injection, schedule: Q01DX005 (ip), vehicle: saline with Tween-80 122 % of control

C[C@]12C=CC(=O)C=C1CC[C@H]1[C@@H]3C[C@@H](O)[C@](O)(C(=O)CO)[C@@]3(C)C[C@H](O)[C@@]12F
inactive: dose: 100.0 mg/kg/injection, schedule: Q04DX003 (ip), vehicle: Klucel (hydroxypropylcellulose) (HPC) 100 % of control | dose: 200.0 mg/kg/injection, schedule: Q04DX003 (ip), vehicle: Klucel (hydroxypropylcellulose) (HPC) 90 % of control

NC(=O)N/N=c1/oc2ccccc2cc1C(N)=O
inactive: dose: 100.0 mg/kg/injection, schedule: Q04DX002 (ip), vehicle: saline 98 % of control | dose: 200.0 mg/kg/injection, schedule: Q04DX002 (ip), vehicle: saline 98 % of control | dose: 400.0 mg/kg/injection, schedule: Q04DX002 (ip), vehicle: saline 96 % of control

COC1(OC)C2(Cl)C(Cl)=C(Cl)C1(Cl)C1C3CC=CC(CC12)S3 (stereo unspecified)
inactive: dose: 100.0 mg/kg/injection, schedule: Q04DX002 (ip), vehicle: saline with Tween-80 102 % of control | dose: 200.0 mg/kg/injection, schedule: Q04DX002 (ip), vehicle: saline with Tween-80 100 % of control | dose: 400.0 mg/kg/injection, schedule: Q04DX002 (ip), vehicle: saline with Tween-80 99 % of control

Nc1cc(Nc2cccc(Cl)c2)nc(N)n1
inactive: [2] 87 % of control | [3] 91 % of control

O=[N+]([O-])[O-].OCCNCCNCC[OH2+].OCCNCCNCC[OH2+].[Ni+2]
inactive: dose: 3.13 mg/kg/injection, schedule: Q01DX009 (ip), vehicle: saline 88 % of control | dose: 6.25 mg/kg/injection, schedule: Q01DX009 (ip), vehicle: saline 90 % of control | dose: 12.5 mg/kg/injection, schedule: Q01DX009 (ip), vehicle: saline 102 % of control and 86 % of control

NC(=S)Nc1ccc(Cc2ccc(NC(N)=S)cc2)cc1
inactive: [1] 101 % of control | [2] 101 % of control | [3] 100 % of control | dose: 200.0 mg/kg/injection, schedule: Q04DX003 (ip), vehicle: saline with Tween-80 99 % of control

Cc1ccc(S(=O)(=O)CN(CN2C(=O)CCC2=O)c2ccc(Cl)cc2)cc1
inactive: dose: 15.0 mg/kg/injection, schedule: Q01DX005 (ip), vehicle: Klucel (hydroxypropylcellulose) (HPC) 101 % of control | dose: 30.0 mg/kg/injection, schedule: Q01DX005 (ip), vehicle: Klucel (hydroxypropylcellulose) (HPC) 95 % of control | dose: 60.0 mg/kg/injection, schedule: Q01DX005 (ip), vehicle: Klucel (hydroxypropylcellulose) (HPC) 91 % of control and 93 % of control | dose: 240.0 mg/kg/injection, schedule: Q01DX005 (ip), vehicle: Klucel (hydroxypropylcellulose) (HPC) 90 % of control

C(=C\c1ccc2c(c1)OCO2)/c1ccncc1
inactive: dose: 25.0 mg/kg/injection, schedule: Q01DX005 (ip), vehicle: Klucel (hydroxypropylcellulose) (HPC) 102 % of control | [7] 94 % of control and 102 % of control | [8] 95 % of control and 101 % of control | dose: 200.0 mg/kg/injection, schedule: Q01DX005 (ip), vehicle: Klucel (hydroxypropylcellulose) (HPC) 100 % of control and 90 % of control

CN=C(N)N/N=C(\c1ccccc1)c1ccc(Br)cc1
inactive: dose: 3.12 mg/kg/injection, schedule: Q04DX002 (ip), vehicle: saline with Tween-80 101 % of control | dose: 6.25 mg/kg/injection, schedule: Q04DX002 (ip), vehicle: saline with Tween-80 108 % of control and 96 % of control

O=P(O)(O)O.[Cr+3].[NH-]CC[NH-].[NH-]CC[NH-].[NH-]CC[NH-]
inactive: dose: 25.0 mg/kg/injection, schedule: Q01DX009 (ip), vehicle: saline 101 % of control | dose: 50.0 mg/kg/injection, schedule: Q01DX009 (ip), vehicle: saline 97 % of control | dose: 100.0 mg/kg/injection, schedule: Q01DX009 (ip), vehicle: saline 99 % of control

CSCCC(NC(=O)C(F)(F)F)C(=O)O (stereo unspecified)
inactive: [9] 106 % of control | [10] 94 % of control | dose: 200.0 mg/kg/injection, schedule: Q01DX009 (ip), vehicle: saline with Tween-80 94 % of control

Cc1ccc2c(=O)n(C)c(=O)n(C)c2n1
inactive: [11] 98 % of control | [12] 102 % of control | [9] 103 % of control | [10] 103 % of control

Nc1cccc2cccnc12 (tested in a mixture with another compound)
inactive: dose: 6.25 mg/kg/injection, schedule: Q01DX009 (ip), vehicle: saline with Tween-80 97 % of control | [11] 103 % of control | [12] 106 % of control | [9] 104 % of control

Reference: PubChem BioAssay AID330 (DTP/NCI, 2004)
